Results: patent publication US7807676B2, “Diketo-Piperazine and Piperidine derivatives as antiviral agents” (priority 2006, dated 2010)
pEC50: −log10 of the molar value.

What follows are compounds tested on HIV-1 single-round infectious reporter virus (assay: Single-round infectious HIV-1 luciferase reporter virus infection of HeLa CD4 cells (antiviral EC50)). Settings: Human immunodeficiency virus 1, HeLa, read-out: EC50 Group from Table 3.
Type: cell-based
Summary of the method: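 Compound (≤10 μM final, 10 concentrations) was added to HeLa CD4 cells together with luciferase-reporter HIV-1 pseudovirus (nef replaced by luciferase, envelope supplied in trans) at MOI ~0.01. Cells were lysed 72 h post-infection at 37 °C for luminescence; percent inhibition versus untreated infection, fitted four-parameter logistic for EC50.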

Compound | pEC50
Cc1cc(NC(=O)c2cccnc2N2CCN(C(=O)C(=O)c3c[nH]c4c(-n5ccnn5)ncc(F)c34)CC2)no1 [D-39] | < 6.30
CCOC(=O)CCC(=O)c1cccnc1N1CCN(C(=O)C(=O)c2c[nH]c3c(-n4ccnn4)ncc(F)c23)CC1 [D-40] | < 6.30
CCOC(=O)CCCC(=O)c1cccnc1N1CCN(C(=O)C(=O)c2c[nH]c3c(-n4ccnn4)ncc(F)c23)CC1 [D-41] | < 6.30
CCOC(=O)CCCCC(=O)c1cccnc1N1CCN(C(=O)C(=O)c2c[nH]c3c(-n4ccnn4)ncc(F)c23)CC1 [D-42] | < 6.30
CCOC(=O)CCCCCC(=O)c1cccnc1N1CCN(C(=O)C(=O)c2c[nH]c3c(-n4ccnn4)ncc(F)c23)CC1 [D-43] | < 6.30
CCOC(=O)CCCCCCC(=O)c1cccnc1N1CCN(C(=O)C(=O)c2c[nH]c3c(-n4ccnn4)ncc(F)c23)CC1 [D-44] | < 6.30
N#CCCC(=O)c1cccnc1N1CCN(C(=O)C(=O)c2c[nH]c3c(-n4ccnn4)ncc(F)c23)CC1 [D-45] | < 6.30
N#CCCCC(=O)c1cccnc1N1CCN(C(=O)C(=O)c2c[nH]c3c(-n4ccnn4)ncc(F)c23)CC1 [D-46] | < 6.30
O=C(C(=O)N1CCN(c2nsnc2N2CCCC2)CC1)c1c[nH]c2c(-n3ccnn3)ncc(F)c12 [D-47] | > 6.30
N#Cc1cccc(CC(=O)c2cccnc2N2CCN(C(=O)C(=O)c3c[nH]c4c(-n5ccnn5)ncc(F)c34)CC2)c1 [D-48] | > 6.30
COc1cnc(-n2cnc(C)n2)c2[nH]cc(C(=O)C(=O)N3CCN(c4nccnc4OC(C)C)CC3)c12 [D-49] | > 6.30
COc1cnc(-n2cnc(C)n2)c2[nH]cc(C(=O)C(=O)N3CCN(c4nn(C)c(=O)cc4-c4ccccc4)C[C@H]3C)c12 [D-50] | < 6.30
COc1cnc(-n2cnc(C)n2)c2[nH]cc(C(=O)C(=O)N3CCN(c4ncccc4C(=O)NCCCN(C)C)CC3)c12 [D-51] | < 6.30
O=C(C(=O)N1CCN(c2nnnn2-c2ccccn2)CC1)c1c[nH]c2c(-n3ccnn3)ncc(F)c12 [E-1, 1-(4-fluoro-7-(1H-1,2,3-triazol-1-yl)-1H-pyrrolo[2,3-c]pyridinyl-3-yl)-2-(4-(1-(pyridin-2-yl)-1H-tetrazol-5-yl)piperazin-1-yl)ethane-1,2-dione] | > 6.30
COc1cnc(-n2cnc(C)n2)c2[nH]cc(C(=O)C(=O)N3CCN(c4nnnn4-c4ccccn4)CC3)c12 [E-2] | > 6.30
O=C(C(=O)N1CCN(c2nnnn2-c2cccnc2)CC1)c1c[nH]c2c(-n3ccnn3)ncc(F)c12 [E-3] | > 6.30
O=C(C(=O)N1CCN(c2nnnn2-c2nccs2)CC1)c1c[nH]c2c(-n3ccnn3)ncc(F)c12 [E-4] | > 6.30
COc1cnc(-n2cnc(C)n2)c2[nH]cc(C(=O)C(=O)N3CCN(c4nnnn4-c4nccs4)CC3)c12 [E-5] | > 6.30
O=C(C(=O)N1CCN(c2nnnn2-c2ncco2)CC1)c1c[nH]c2c(-n3ccnn3)ncc(F)c12 [E-6] | > 6.30
COc1cnc(-n2cnc(C)n2)c2[nH]cc(C(=O)C(=O)N3CCN(c4nnnn4-c4ncco4)CC3)c12 [E-7] | > 6.30

Compound | pEC50
O=C(C(=O)N1CCN(c2nnnn2C2CCCCC2)CC1)c1c[nH]c2c(-n3ccnn3)ncc(F)c12 [E-8] | > 6.30
COc1cccc(-n2nnnc2N2CCN(C(=O)C(=O)c3c[nH]c4c(-n5ccnn5)ncc(F)c34)CC2)c1 [E-9] | > 6.30
COc1ccc(-n2nnnc2N2CCN(C(=O)C(=O)c3c[nH]c4c(-n5ccnn5)ncc(F)c34)CC2)cc1 [E-10] | < 6.30
N#Cc1cccc(-n2nnnc2N2CCN(C(=O)C(=O)c3c[nH]c4c(-n5ccnn5)ncc(F)c34)CC2)c1 [E-11] | < 6.30
N#Cc1ccc(-n2nnnc2N2CCN(C(=O)C(=O)c3c[nH]c4c(-n5ccnn5)ncc(F)c34)CC2)cc1 [E-12] | < 6.30
COc1cnc(-n2cnc(C)n2)c2[nH]cc(C(=O)C(=O)N3CCN(c4nnnn4-c4cccc(F)n4)CC3)c12 [E-12a] | > 6.30
COc1cnc(-n2cnc(C)n2)c2[nH]cc(C(=O)C(=O)N3CCN(c4nnnn4-c4cccc(N)n4)CC3)c12 [E-12b] | > 6.30
COc1cnc(-n2cnc(C)n2)c2[nH]cc(C(=O)C(=O)N3CCN(c4nnnn4-c4cccc(O)n4)CC3)c12 [E-12c] | > 6.30
COc1cnc(-n2cnc(C)n2)c2[nH]cc(C(=O)C(=O)N3CCN(c4nnnn4-c4cccnn4)CC3)c12 [E-12d] | > 6.30
O=C(C(=O)N1CCN(c2ccnn2-c2ccccn2)CC1)c1c[nH]c2c(-n3ccnn3)ncc(F)c12 [E-14, 1-(4-fluoro-7-(1H-1,2,3-triazol-1-yl)-1H-pyrrolo[2,3-c]pyridinyl-3-yl)-2-(4-(1-(pyridin-2-yl)-1H-pyrazol-5-yl)piperazin-1-yl)ethane-1,2-dione] | > 6.30
COc1cnc(-n2cnc(C)n2)c2[nH]cc(C(=O)C(=O)N3CCN(c4ccnn4-c4ccccn4)CC3)c12 [E-15, 1-(4-methoxy-7-(3-methyl-1H-1,2,4-triazol-1-yl)-1H-pyrrolo[2,3-c]pyridinyl-3-yl)-2-(4-(1-(pyridin-2-yl)-1H-pyrazol-5-yl)piperazin-1-yl)ethane-1,2-dione] | > 6.30
O=C(C(=O)N1CCN(c2cn[nH]c2-c2ccccn2)CC1)c1c[nH]c2c(-n3ccnn3)ncc(F)c12 [E-16, 1-(4-fluoro-7-(1H-1,2,3-triazol-1-yl)-1H-pyrrolo[2,3-c]pyridinyl-3-yl)-2-(4-(3-(pyridin-2-yl)-1H-pyrazol-4-yl)piperazin-1-yl)ethane-1,2-dione] | > 6.30
COc1cnc(-n2cnc(C)n2)c2[nH]cc(C(=O)C(=O)N3CCN(c4cn[nH]c4-c4ccccn4)CC3)c12 [E-17, 1-(4-methoxy-7-(3-methyl-1H-1,2,4-triazol-1-yl)-1H-pyrrolo[2,3-c]pyridinyl-3-yl)-2-(4-(3-(pyridin-2-yl)-1H-pyrazol-4-yl)piperazin-1-yl)ethane-1,2-dione] | > 6.30
CN1CCN(C(=O)c2cc(-c3ncc(F)c4c(C(=O)C(=O)N5CCN(c6nnnn6-c6ccccc6)CC5)c[nH]c34)n[nH]2)CC1 [F-1] | > 6.30
CN1CCC(N(C)C(=O)c2cc(-c3ncc(F)c4c(C(=O)C(=O)N5CCN(c6nnnn6-c6ccccc6)CC5)c[nH]c34)n[nH]2)C1 (stereo not drawn) [F-2] | > 6.30
O=C(C(=O)N1CCN(c2nnnn2-c2ccccc2)CC1)c1c[nH]c2c(-c3cc(C(=O)N4CC[C@@H](O)C4)[nH]n3)ncc(F)c12 [F-3] | > 6.30
O=C(C(=O)N1CCN(c2nnnn2-c2ccccc2)CC1)c1c[nH]c2c(-c3cc(C(=O)N4CCN(C(=O)C5CCCO5)CC4)[nH]n3)ncc(F)c12 (stereo not drawn) [F-4] | > 6.30
CC(=O)N1CCN(C(=O)c2cc(-c3ncc(F)c4c(C(=O)C(=O)N5CCN(c6nnnn6-c6ccccc6)CC5)c[nH]c34)n[nH]2)CC1 [F-5] | > 6.30
O=C(C(=O)N1CCN(c2nnnn2-c2ccccc2)CC1)c1c[nH]c2c(-c3cc(C(=O)N4CCC[C@H]4CO)[nH]n3)ncc(F)c12 [F-6] | > 6.30
O=C(C(=O)N1CCN(c2nnnn2-c2ccccc2)CC1)c1c[nH]c2c(-c3cc(C(=O)N4CCN(CCN5CCOCC5)CC4)[nH]n3)ncc(F)c12 [F-7] | > 6.30

Compound | pEC50
O=C(C(=O)N1CCN(c2nnnn2-c2ccccc2)CC1)c1c[nH]c2c(-c3cc(C(=O)N4CCN(CCO)CC4)[nH]n3)ncc(F)c12 [F-8] | > 6.30
CCN(C)C(=O)c1cc(-c2ncc(F)c3c(C(=O)C(=O)N4CCN(c5nnnn5-c5ccccc5)CC4)c[nH]c23)n[nH]1 [F-9] | > 6.30
O=C(C(=O)N1CCN(c2nnnn2-c2ccccc2)CC1)c1c[nH]c2c(-c3cc(C(=O)N4CCSC4)[nH]n3)ncc(F)c12 [F-10] | > 6.30
O=C(C(=O)N1CCN(c2nnnn2-c2ccccc2)CC1)c1c[nH]c2c(-c3cc(C(=O)N4CCCC(O)C4)[nH]n3)ncc(F)c12 (stereo not drawn) [F-11] | > 6.30
O=C(NCCCN1CCCC1=O)c1cc(-c2ncc(F)c3c(C(=O)C(=O)N4CCN(c5nnnn5-c5ccccc5)CC4)c[nH]c23)n[nH]1 [F-12] | > 6.30
CN1CCCC1CCNC(=O)c1cc(-c2ncc(F)c3c(C(=O)C(=O)N4CCN(c5nnnn5-c5ccccc5)CC4)c[nH]c23)n[nH]1 (stereo not drawn) [F-13] | > 6.30
CC(=O)NCCNC(=O)c1cc(-c2ncc(F)c3c(C(=O)C(=O)N4CCN(c5nnnn5-c5ccccc5)CC4)c[nH]c23)n[nH]1 [F-14] | > 6.30
COCCN1CCN(C(=O)c2cc(-c3ncc(F)c4c(C(=O)C(=O)N5CCN(c6nnnn6-c6ccccc6)CC5)c[nH]c34)n[nH]2)CC1 [F-15] | > 6.30
O=C(C(=O)N1CCN(c2nnnn2-c2ccccc2)CC1)c1c[nH]c2c(-c3cc(C(=O)N4CCC(O)CC4)[nH]n3)ncc(F)c12 [F-16] | > 6.30
COc1cnc(-n2cnc(C)n2)c2[nH]cc(C(=O)C(=O)N3CCN(c4nonc4-c4ccccc4)CC3)c12 [G-1a] | > 6.30
O=C(C(=O)N1CCN(c2nonc2-c2ccccc2)CC1)c1c[nH]c2c(-n3ccnn3)ncc(F)c12 [G-1b] | > 6.30
COc1cnc(-c2cnc(N3CCN(C)CC3)cn2)c2[nH]cc(C(=O)C(=O)N3CCN(c4nnnn4-c4ccccc4)CC3)c12 [G-2a] | > 6.30
COc1cnc(-c2cnc(N3CCOCC3)cn2)c2[nH]cc(C(=O)C(=O)N3CCN(c4nnnn4-c4ccccc4)CC3)c12 [G-2b] | > 6.30
COc1cnc(-c2cnc(-n3ccnc3)cn2)c2[nH]cc(C(=O)C(=O)N3CCN(c4nnnn4-c4ccccc4)CC3)c12 [G-2c] | > 6.30
COc1cnc(-n2cnc(C)n2)c2[nH]cc(C(=O)C(=O)N3CCN(c4ncccc4-c4ccccc4)CC3)c12 [G-3a] | > 6.30
O=C(C(=O)N1CCN(c2ncccc2-c2ccccc2)CC1)c1c[nH]c2c(-n3ccnn3)ncc(F)c12 [G-3b] | > 6.30
CN(C)c1nc(N2CCN(C(=O)C(=O)c3c[nH]c4c(-n5ccnn5)ncc(F)c34)CC2)n(-c2ccccc2)n1 [G-4a] | > 6.30
COc1cnc(-n2cnc(C)n2)c2[nH]cc(C(=O)C(=O)N3CCN(c4nc(N(C)C)nn4-c4ccccc4)CC3)c12 [G-4b] | > 6.30
CN(C)c1nc(N2CCN(C(=O)C(=O)c3c[nH]c4c(-n5ccnn5)ncc(F)c34)CC2)nn1-c1ccccc1 [G-4c] | < 6.30
COc1cnc(-n2cnc(C)n2)c2[nH]cc(C(=O)C(=O)N3CCN(c4nc(N(C)C)n(-c5ccccc5)n4)CC3)c12 [G-4d] | > 6.30
